Measurements reported in patent US9889152B2, “Multiple PPI dosage form” (TAKEDA PHARMACEUTICALS U.S.A., INC., priority 2004, dated 2018).

Tests used:
[1] = Site of absorption study (Phase 1, remote control capsule, segmental absorption and pharmacokinetics); assay type: in vivo, human; conditions: 30 mg powder with sodium bicarbonate released via remote control capsule; healthy adult males
Text: This was a Phase 1, open-label, non-randomized, four-period, single-dose, crossover study in 8 healthy adult males. […] Upon receiving a remote signal during Periods 1, 2, and 3, the capsule released it's contents in the pre-designated site within the GI tract (see table 1 below).
Indium-111 chloride (^111 In-chloride) was used as the radioactive marker in the test formulation that was filled into remote control capsule. Each subject also received a second radioisotope, technetium-99m DTPA (^99mTc-DTPA), in the water used to swallow the InteliSite Companion capsule. Since the radioisotopes are not absorbed, progress of the formulation through the GI tract was monitored using a gamma camera that captures images at frequent intervals after ingestion of the dose. The radioisotope in the water outlined or “mapped” the GI tract to delineate the targeted site of drug release. […]
The relative bioavailability of lansoprazole delivered to the proximal small intestine, distal small intestine, or colon compared to the delayed release lansoprazole capsule was calculated as the ratios of AUC∞ for different GI regions to that of the delayed release capsule. In addition, the relative bioavailability of lansoprazole delivered to the distal small intestine and colon compared to the proximal small intestine was calculated.

gastric pH = assay: Threshold level modeling: effect compartment / sigmoid Emax PK-PD model of intragastric pH versus lansoprazole concentration after single intravenous doses; assay type: in vivo, humans; conditions: effect compartment concentration (assumed same as plasma concentration at steady-state), fasting, FIG. 1
Text: Plasma concentration data obtained following administration of single intravenous doses of lansoprazole in humans was modeled to establish threshold concentrations above which a PPI is effective. Initially, gastric pH measured over the five hours post dosing (under fasting conditions) was plotted as a function of plasma concentration. However, no direct relationship between the gastric pH and the drug's plasma concentration could be established. […] An effect compartment model was then used in an attempt to delineate a useful relationship between drug concentration and effect. Accordingly, a model was proposed where a PK compartment was linked to a separate effect compartment. […] Using the same intravenous data, the pharmacological effect was modeled using sigmoid Emax model and PK was modeled using the two compartment model. The modeling first established the pharmacokinetic characteristics of lansoprazole, then the relationship between drug plasma concentration and intragastric pH was established, and pharacodynamic parameter estimates were obtained. The modeling provided the graph shown in FIG. 1 where the effect compartment concentration (assumed to be the same as the plasma concentration at steady-state) is on the x-axis and gastric pH on the y-axis. […]

SMILES: Cc1c(OCC(F)(F)F)ccnc1C[S+]([O-])c1nc2ccccc2[nH]1 (stereo not shown) [lansoprazole]
- extent of absorption when directly delivered to the colon [1]: reduced
- rate and extent of absorption from the distal small intestine versus proximal intestine [1]: less than those obtained for the proximal intestine, although the absorptions were comparable
- concentration above which the effect on gastric pH levels off (gastric pH): ~450 ng/ml
- threshold concentration above which the effect of the drug (rise of gastric pH above baseline) begins (gastric pH): approximately 100 ng/ml
